One series concerns Echin. c.g. As to the kind of experiment: preemergence treatment in the greenhouse, % damage. The class given is in vivo. Summed up: (§1)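 Preemergence: active sprayed onto the soil surface immediately after sowing; pots sprinkler-irrigated and covered with transparent hoods until plants rooted. Postemergence: unhooded plants sprayed at 3–10 cm. Both run 4–6 weeks in greenhouse; damage 0 = none, 100 = no emergence or total kill of visible parts.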

In another series the test system is Setaria spp. Briefly: preemergence treatment in the greenhouse, % damage. In kind it is in vivo. The note with it: 2.0 kg/ha. Summed up: as §1
For series [1], the system named is Brassica napus. As to the kind of experiment: preemergence treatment in the greenhouse, % damage. The class given is in vivo. The note with it: 2.0 kg/ha. The procedure, abridged:
as §1

A further series deals with Matric. spp. Briefly: preemergence treatment in the greenhouse, % damage. The class given is in vivo. The following applies: 2.0 kg/ha. The procedure, abridged: as §1
Another series has as its system Solanum nigrum. As to the kind of experiment: preemergence treatment in the greenhouse, % damage. In kind it is in vivo. Summed up:
as §1

Another series deals with Bromus spp. As to the kind of experiment: preemergence treatment in the greenhouse, % damage. In kind it is in vivo. Summed up: as §1
In a further series the test system is Zea mays. As to the kind of experiment: preemergence treatment in the greenhouse, % damage. The note with it: 2.0 kg/ha. The class given is in vivo. Summed up: as §1
Series [2] deals with Alopec. myosur. As to the kind of experiment: preemergence treatment in the greenhouse, % damage. The class given is in vivo. The note with it: 2.0 kg/ha. The procedure, abridged:
as §1

For the next series, the system named is Stellaria media. Briefly: preemergence application in the open, % damage. The class given is in vivo. As for the experimental part:
(§2) The experiments were carried out on small plots. The soil was a sandy loam having a pH of from 5 to 6 and containing from 1 to 1.5% humus. The treatment was preemergence, the active ingredients being applied immediately or at the latest 3 days after sowing. The crop plants were sown in rows. The weed flora was made up of the most widely varying species and was natural; the weed flora depended on the time of the year and in part on the crop (e.g., spring-germinating, summer-germinating). The substances were emulsified or suspended in water as the vehicle, and applied by means of a motor-driven plot spray mounted on a hitch. When no rain fell, the plots were watered to ensure germination and growth of the crop plants and weeds. All the experiments were run for several weeks. Over this period, assessments were made at certain intervals on the 0 to 100 scale.

In series [3] the test system is Brassica napus. Briefly: preemergence application in the open, % damage. The class given is in vivo. As for the experimental part: as §2
The subject of another series is Lamium spp. Briefly: preemergence application in the open, % damage. The class given is in vivo. As for the experimental part: as §2
The next series deals with Anth./Matric. As to the kind of experiment: preemergence application in the open, % damage. In kind it is in vivo. As for the experimental part: as §2
The subject of series [4] is Alopec. myosur. As to the kind of experiment: preemergence application in the open, % damage. In kind it is in vivo. As for the experimental part: as §2
A further series deals with Euph. gen. As to the kind of experiment: preemergence treatment in the greenhouse, % damage. In kind it is in vivo. The following applies: 0.25 kg/ha. Summed up:
as §1

The next series deals with Chrys. seget. As to the kind of experiment: preemergence treatment in the greenhouse, % damage. In kind it is in vivo. The note with it: 0.25 kg/ha. The procedure, abridged: as §1
Another series has as its system Sorgh. halep. Briefly: preemergence treatment in the greenhouse, % damage. In kind it is in vivo. Summed up: as §1
Another series has as its system Poa annua. Briefly: preemergence treatment in the greenhouse, % damage. The class given is in vivo. The following applies: 0.25 kg/ha. The procedure, abridged: as §1
Another series relates to Amar. retro. Briefly: preemergence treatment in the greenhouse, % damage. The class given is in vivo. The procedure, abridged: as §1
Another series concerns Cyp. diff. Briefly: preemergence treatment in the greenhouse, % damage. In kind it is in vivo. Summed up:
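Ratings, on a 0 to 100 scale, show injury where 100 means no emergence or complete destruction of visible parts. Compounds in water were sprayed either onto freshly sown soil, which was then watered and hooded, or onto plants 3–10 cm tall. Observation lasted 4–6 weeks.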

Another series relates to Glyc. max. Briefly: preemergence treatment in the greenhouse, % damage. In kind it is in vivo, Glycine max. Summed up: as §1
The test system of a further series is Cenchr. ech. Briefly: preemergence treatment in the greenhouse, % damage. In kind it is in vivo. The procedure, abridged: as §1
In the next series the test system is Sida spin. As to the kind of experiment: preemergence treatment in the greenhouse, % damage. The class given is in vivo. The procedure, abridged: as §1
A further series deals with Panic. virg. As to the kind of experiment: preemergence treatment in the greenhouse, % damage. In kind it is in vivo. Summed up:
as §1

For another series, the system named is Ipom. spp. Briefly: preemergence treatment in the greenhouse, % damage. The class given is in vivo. The procedure, abridged: as §1
For the next series, the system named is Lept. spp. Briefly: preemergence treatment in the greenhouse, % damage. In kind it is in vivo. Summed up:
as §1

For another series, the system named is Gossyp. hirs. Briefly: preemergence treatment in the greenhouse, % damage. In kind it is in vivo, Gosspyium hirsutum. The text has this:
The vessels employed were plastic flowerpots having a volume of 300 cm^3; the substrate was a sandy loam containing about 1.5% humus. The seeds of the test plants (see Table 1) were sown shallow, and separated according to species. In the case of Cyperus esculentus, pregerminated tubers were planted. In the preemergence treatment, the active ingredients were then immediately applied to the surface of the soil. They were suspended or emulsified in water as the vehicle, and sprayed through atomizing nozzles. After the agents had been applied, the vessels were lightly sprinkler-irrigated to set germination and growth going, and to activate the chemical agents. The vessels were then covered with transparent plastic hoods until the plants had taken root. This cover ensured uniform germination of the test plants (to the extent that this was not impaired by the chemicals), and prevented readily volatile substances from evaporating.
For postemergence treatment, the plants were first grown to a height of from 3 to 10 cm, depending on their habit, before treated. Hoods were not placed on the pots. The experiments were set up in the greenhouse, hotter areas (25° to 40° C.) being preferred for heat-loving species, and 15° to 30° C. for plants from moderate climates. The experiments were carried out for from 4 to 6 weeks. During this period the plants were tended and their reaction to the various treatments was assessed. The following tables contain the substances investigated, the application rates in kg/ha of active ingredient, and the test plant species. Assessments were made on a 0 to 100 scale, 0 denoting no damage or normal emergence, and 100 denoting no emergence or complete destruction of at least the visible plant parts.

For the compound `Cc1ccccc1N(Cn1cccn1)C(=O)CCl`, the “% damage” value with Echin. c.g. (2.0 kg/ha) is 95%; with Setaria spp., 95%; in the series on Brassica napus [1] it was 0%; with Matric. spp. it was 90%; in the series with Solanum nigrum (2.0 kg/ha) it was 95%; with Bromus spp. (2.0 kg/ha), 80%. The “% damage” value is on record as 15% in the series with Zea mays and 90% in the series with Alopec. myosur. [2].
As to `Cc1ccccc1N(Cn1nccc1C)C(=O)CCl`, the “% damage” value with Echin. c.g. (2.0 kg/ha) is 95%; in the series on Setaria spp., 100%; with Brassica napus [1] it was 10%; in the series with Matric. spp., 90%; in the series with Solanum nigrum (2.0 kg/ha) it was 100%; with Bromus spp. (2.0 kg/ha), 90%. Moreover, the “% damage” value in the series on Zea mays worked out at 0%; with Alopec. myosur. [2] it was 90%.
Take `Cc1ccccc1N(Cn1nc(C)c(C)c1C)C(=O)CCl`: the “% damage” value in the series with Echin. c.g. (2.0 kg/ha) is 55%; in the series on Setaria spp. it was 100%; in the series on Brassica napus [1], 30%; in the series on Matric. spp., 95%; with Solanum nigrum (2.0 kg/ha) it was 100%; with Bromus spp. (2.0 kg/ha), 80%. For the same compound, the “% damage” value was determined as 10% in the series on Zea mays and 50% in the series with Alopec. myosur. [2].
As for `CCc1cccc(C)c1N(Cn1cccn1)C(=O)CCl` [Compound 7], the “% damage” value with Stellaria media (0.5 kg/ha) was found to be 80%; in the series on Stellaria media (1.0 kg/ha), 95%; in the series with Brassica napus [3] (0.5 kg/ha), 5%; with Brassica napus [3] (1.0 kg/ha), 10%; in the series with Lamium spp. (0.5 kg/ha) it was 95%; with Lamium spp. (1.0 kg/ha) it was 100%. The “% damage” value turned out to be 100% in the series on Anth./Matric. (0.5 kg/ha); 70% with Alopec. myosur. [4] (0.5 kg/ha); 85% in the series with Alopec. myosur. [4] (1.0 kg/ha); 80% in the series with Euph. gen.; 100% in the series on Chrys. seget.; 75% with Sorgh. halep. (0.25 kg/ha). Moreover, the “% damage” value stood at 100% with Poa annua, 100% in the series on Solanum nigrum (0.25 kg/ha), 95% with Bromus spp. (0.25 kg/ha) and 88% in the series on Amar. retro. (0.25 kg/ha).
For `CCc1cccc(C)c1N(Cn1nc(C)cc1C)C(=O)CCl` [Compound 40], the “% damage” value stood at 68% with Stellaria media (1.0 kg/ha); 20% with Brassica napus [3] (1.0 kg/ha); 60% in the series with Lamium spp. (1.0 kg/ha); 90% in the series with Anth./Matric. (1.0 kg/ha); 50% in the series on Alopec. myosur. [4] (1.0 kg/ha); 100% with Cyp. diff. (0.125 kg/ha). Moreover, the “% damage” value in the series on Cyp. diff. (0.25 kg/ha) was determined as 100%; in the series with Euph. gen. it was 0%; with Chrys. seget., 30%; with Sorgh. halep. (0.125 kg/ha) it was 60%; with Sorgh. halep. (0.25 kg/ha), 60%; with Poa annua it was 100%. The “% damage” value was found to be 95% in the series on Solanum nigrum (one value printed for two rates (0.125 0.25 kg/ha)), 80% in the series on Bromus spp. (0.25 kg/ha), 90% in the series with Amar. retro. (0.125 kg/ha) and 100% in the series on Amar. retro. (0.25 kg/ha).
As for `CCc1cccc(CC)c1N(Cn1nc(C)cc1C)C(=O)CCl` [Compound 41], the “% damage” value in the series with Glyc. max (0.25 kg/ha) amounted to 0%; in the series on Glyc. max (0.5 kg/ha) it was 0%; with Glyc. max (1.0 kg/ha), 0%; in the series with Glyc. max (2.0 kg/ha) it was 0%; in the series on Cenchr. ech. (0.25 kg/ha) it was 90%; in the series on Cenchr. ech. (0.5 kg/ha), 92%. The “% damage” value in the series with Cenchr. ech. (1.0 kg/ha) is recorded as 100%; in the series with Cenchr. ech. (2.0 kg/ha), 100%; in the series on Sida spin. (1.0 kg/ha) it was 45%; in the series with Sida spin. (2.0 kg/ha) it was 90%; in the series on Cyp. diff. (0.25 kg/ha), 100%; with Cyp. diff. (0.5 kg/ha) it was 100%. Besides, the “% damage” value in the series on Cyp. diff. (1.0 kg/ha) is recorded as 100%; in the series with Panic. virg. (0.25 kg/ha), 85%; in the series on Panic. virg. (0.5 kg/ha), 85%; in the series on Panic. virg. (1.0 kg/ha), 100%; in the series on Panic. virg. (2.0 kg/ha) it was 100%; in the series on Ipom. spp. (1.0 kg/ha) it was 50%. The “% damage” value with Ipom. spp. (2.0 kg/ha) was found to be 90%; in the series with Echin. c.g. (0.25 kg/ha), 95%; in the series with Echin. c.g. (0.5 kg/ha) it was 100%; in the series with Echin. c.g. (1.0 kg/ha) it was 100%; with Echin. c.g. (2.0 kg/ha), 100%; in the series with Lept. spp. (0.25 kg/ha), 95%. Also, the “% damage” value in the series on Lept. spp. (0.5 kg/ha) came to 95%; in the series on Lept. spp. (1.0 kg/ha) it was 95%; with Lept. spp. (2.0 kg/ha), 95%; in the series with Solanum nigrum (0.25 kg/ha), 70%; in the series with Solanum nigrum (0.5 kg/ha) it was 90%; in the series on Solanum nigrum (1.0 kg/ha), 98%. The “% damage” value in the series with Solanum nigrum (2.0 kg/ha) came out at 100%; in the series with Amar. retro. (0.25 kg/ha), 73%; in the series on Amar. retro. (0.5 kg/ha), 97%; with Amar. retro. (1.0 kg/ha), 100%; in the series on Amar. retro. (2.0 kg/ha), 100%; in the series with Gossyp. hirs. (0.25 kg/ha) it was 0%. Also, the “% damage” value is listed as 8% in the series with Gossyp. hirs. (0.5 kg/ha), 8% in the series with Gossyp. hirs. (1.0 kg/ha) and 10% with Gossyp. hirs. (2.0 kg/ha).
